The results in this text go back to patent publication US7074791B2, “Pyrrolo[1,2-b]pyridazine compounds and their uses” (Pfizer Inc., priority 2002, dated 2006).

SMILES strings stand for the structures.

Molecule `CCC(CC)Nc1cc(C)nn2c(-c3ccc(Cl)cc3Cl)c(C)cc12` [Example 1, 7-(2,4-dichlorophenyl)-N-(1-ethylpropyl)-2,6-dimethylpyrrolo[1,2-b]pyridazin-4-amine] displayed a melting point of 115 to 118 °C.
`COCC(COC)Nc1cc(C)nn2c(-c3ccc(Cl)cc3Cl)c(C)cc12` [Example 2, 7-(2,4-dichlorophenyl)-N-[2-methoxy-1-(methoxymethyl)ethyl]-2,6-dimethylpyrrolo[1,2-b]pyridazin-4-amine] registered a melting point of 154 to 155 °C.

A word on the melting point: it is the temperature, or range, at which the solid turns liquid.
